Literature values, collected in patent US6334999B1, “Liposomal aerosols for delivery of chemotherapeutic retinoids to the lungs” (Research Development Foundation, priority 1999, dated 2002).

Conditions: mouse, in vivo

SMILES: CC1=C(/C=C/C(C)=C/C=C/C(C)=C/C(=O)O)C(C)(C)CCC1 [free ATRA, all-trans-retinoic acid]
- dose exerting toxic effects: 25-30 mg/kg of body weight
